For one assay, the target named is T1, human FAAH (Homo sapiens, UniProt O00519).
T1 construct: expressed in transfected cells
T1 sequence (O00519 1-579): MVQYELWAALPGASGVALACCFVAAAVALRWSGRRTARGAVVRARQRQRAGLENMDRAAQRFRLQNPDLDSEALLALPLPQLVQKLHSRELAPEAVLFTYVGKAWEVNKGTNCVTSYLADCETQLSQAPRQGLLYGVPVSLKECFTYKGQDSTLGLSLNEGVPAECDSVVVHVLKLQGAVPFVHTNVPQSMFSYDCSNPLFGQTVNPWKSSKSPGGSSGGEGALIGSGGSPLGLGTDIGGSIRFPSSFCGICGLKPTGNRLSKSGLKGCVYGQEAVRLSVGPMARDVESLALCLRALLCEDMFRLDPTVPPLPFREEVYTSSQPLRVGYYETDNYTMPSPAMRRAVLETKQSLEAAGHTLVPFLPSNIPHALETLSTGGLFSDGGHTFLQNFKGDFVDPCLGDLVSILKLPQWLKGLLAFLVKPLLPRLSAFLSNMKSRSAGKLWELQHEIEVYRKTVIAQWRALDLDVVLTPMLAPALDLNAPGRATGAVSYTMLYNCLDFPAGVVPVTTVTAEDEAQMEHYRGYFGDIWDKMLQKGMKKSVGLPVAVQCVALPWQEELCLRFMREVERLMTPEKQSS
The assay is described as follows: Assay Method 1: FAAH assay, hydrolysis of 3H-anandamide by homogenate of SK-N-MC cells transfected with human FAAH. The class given is biochemical. The conditions noted are these: human FAAH; T84 or transfected SK-N-MC cell homogenate; 3H-AEA tracer 80 nM; rt 1 h; pH 9; read-out: Assay 1 IC50. As for the experimental part:
A. Transfection of Cells with Human FAAH
(§1) A 10-cm tissue culture dish with a confluent monolayer of SK-N-MC cells was split 2 days (d) prior to transfection. Using sterile technique, the media was removed and the cells were detached from the dish by the addition of trypsin. One fifth of the cells were then placed onto a new 10-cm dish. Cells were grown in a 37° C. incubator with 5% CO2 in Minimal Essential Media Eagle with 10% Fetal Bovine Serum. After 2 d, cells were approximately 80% confluent. These cells were removed from the dish with trypsin and pelleted in a clinical centrifuge. The pellet was re-suspended in 400 μL complete media and transferred to an electroporation cuvette with a 0.4 cm gap between the electrodes. Supercoiled human FAAH cDNA (1 μg) was added to the cells and mixed. The voltage for the electroporation was set at 0.25 kV, and the capacitance was set at 960 μF. After electroporation, the cells were diluted into complete media (10 mL) and plated onto four 10-cm dishes. Because of the variability in the efficiency of electroporation, four different concentrations of cells were plated. The ratios used were 1:20, 1:10, and 1:5, with the remainder of the cells being added to the fourth dish. The cells were allowed to recover for 24 h before adding the selection media (complete media with 600 μg/mL G418). After 10 d, dishes were analyzed for surviving colonies of cells. Dishes with well-isolated colonies were used. Cells from individual colonies were isolated and tested.
The assay mixture consisted of […] of the cell homogenate, 10 μL of the test compound, and 40 μL of anandamide [1-^3H-ethanolamine] (3H-AEA, Perkin-Elmer, 10.3 Ci/mmol), which was added last, for a final tracer concentration of 80 nM. The reaction mixture was incubated at rt for 1 h. During the incubation, 96-well Multiscreen filter plates (catalog number MAFCNOB50; Millipore, Bedford, Mass., USA) were loaded with 25 μL of activated charcoal (Multiscreen column loader, catalog number MACL09625, Millipore) and washed once with 100 μL of MeOH. Also during the incubation, 96-well DYNEX MicroLite plates (catalog number NL510410) were loaded with 100 μL of MicroScint40 (catalog number 6013641, Packard Bioscience, Meriden, Conn., USA). After the 1 h incubation, 60 μL of the reaction mixture were transferred to the charcoal plates, which were then assembled on top of the DYNEX plates using Centrifuge Alignment Frames (catalog number MACF09604, Millipore). The unbound labeled ethanolamine was centrifuged through to the bottom plate (5 min at 2000 rpm), which was preloaded with the scintillant, as described above. The plates were sealed and left at rt for 1 h before counting on a Hewlett Packard TopCount.

Another assay has as its target T2, rat FAAH (Rattus norvegicus, UniProt P97612).
T2 construct: expressed in transfected cells
T2 sequence (P97612 1-579): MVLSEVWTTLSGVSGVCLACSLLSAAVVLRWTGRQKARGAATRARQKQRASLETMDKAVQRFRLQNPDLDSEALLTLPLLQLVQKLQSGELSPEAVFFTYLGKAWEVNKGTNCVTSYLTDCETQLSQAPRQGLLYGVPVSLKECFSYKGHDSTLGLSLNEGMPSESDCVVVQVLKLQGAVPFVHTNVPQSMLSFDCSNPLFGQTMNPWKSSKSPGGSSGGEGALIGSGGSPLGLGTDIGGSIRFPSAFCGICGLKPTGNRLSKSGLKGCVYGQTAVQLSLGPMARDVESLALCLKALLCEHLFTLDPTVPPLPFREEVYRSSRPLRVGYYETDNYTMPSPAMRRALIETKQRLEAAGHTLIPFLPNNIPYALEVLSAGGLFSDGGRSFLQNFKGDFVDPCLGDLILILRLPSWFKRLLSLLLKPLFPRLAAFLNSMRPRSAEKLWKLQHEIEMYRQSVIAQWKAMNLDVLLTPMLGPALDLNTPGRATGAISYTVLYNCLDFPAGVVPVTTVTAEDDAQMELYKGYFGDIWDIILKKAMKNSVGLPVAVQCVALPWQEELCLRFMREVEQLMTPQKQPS
Description: Assay Method 2: FAAH assay, hydrolysis of 3H-anandamide by homogenate of SK-N-MC cells transfected with rat FAAH. The class given is biochemical. The note with it: T84 or transfected SK-N-MC cell homogenate, 3H-AEA tracer 80 nM, rt 1 h, pH 9. As for the experimental part:
as §1, with “A. Transfection of Cells with Rat FAAH A 10-cm” for “A 10-cm”, “electrodes. Supercoiled rat FAAH cDNA” for “electrodes. Supercoiled human FAAH cDNA”, “and tested. […] B. FAAH Assay […] The reaction mixture was incubated at rt for 1 h. During the incubation, 96-well Multiscreen filter plates (catalog number MAFCNOB50; Millipore, Bedford, Mass., USA) were loaded with 25 μL of activated charcoal (Multiscreen column loader, catalog number MACL09625, Millipore) and washed once with 100 μL of MeOH. Also during the incubation, 96-well DYNEX MicroLite plates (catalog number NL510410) were loaded with 100 μL of MicroScint40 (catalog number 6013641, Packard Bioscience, Meriden, Conn., USA). After the 1 h incubation, 60 μL of the reaction mixture were transferred to the charcoal plates, which were then assembled on top of the DYNEX plates using Centrifuge Alignment Frames (catalog number MACF09604, Millipore). The unbound labeled ethanolamine was centrifuged through to the bottom plate (5 min at 2000 rpm), which was preloaded with the scintillant, as described above. The plates were sealed and left at rt for 1 h before counting on a Hewlett Packard TopCount.” for “and tested.”

Results on 18 molecules are retold here after patent US20090111778A1, “2-Keto-Oxazoles as Modulators of Fatty Acid Amide Hydrolase” (priority 2005, published 2009).

SMILES strings stand for the structures. Counter-ions that a name gives are not always drawn.

For `O=C(CCCC1CCN(Cc2cccc(Br)c2)CC1)c1ncco1` [Example 90, 4-[1-(3-Bromo-benzyl)-piperidin-4-yl]-1-oxazol-2-yl-butan-1-one], the IC50 at human FAAH worked out at 10 nM; against rat FAAH, 118 nM.

For the molecule `O=C(CCCC1CCN(C(=O)OCc2ccccc2)CC1)c1ncco1` [Example 63, 4-(4-Oxazol-2-yl-4-oxo-butyl)-piperidine-1-carboxylic acid benzyl ester], the figures for the IC50 at human FAAH and at rat FAAH were 3 nM and 2 nM, respectively.

For `CCCCS(=O)(=O)N1CCC(CCCC(=O)c2ncco2)CC1` [Example 58, 4-[1-(Butane-1-sulfonyl)-piperidin-4-yl]-1-oxazol-2-yl-butan-1-one], the IC50 at human FAAH was found to be 60 nM; on rat FAAH, 720 nM.

With `O=C(CCCC1CCN(Cc2ccccc2Cl)CC1)c1ncco1` [Example 84, 4-[1-(2-Chloro-benzyl)-piperidin-4-yl]-1-oxazol-2-yl-butan-1-one], the results for the IC50 at human FAAH and at rat FAAH were 260 nM and 563 nM, respectively.

On to `COc1ccc2nc(Cl)c(CN3CCC(CCCC(=O)c4ncco4)CC3)cc2c1` [Example 100, 4-[1-(2-Chloro-6-methoxy-quinolin-3-ylmethyl)-piperidin-4-yl]-1-oxazol-2-yl-butan-1-one], for which the results for the IC50 at human FAAH and on rat FAAH were 30 nM and 11 nM, respectively.

Turning to `O=C(CCCC1CCN(Cc2ccc(-c3cccs3)nc2)CC1)c1ncco1` [Example 110, 1-Oxazol-2-yl-4-[1-(6-thiophen-2-yl-pyridin-3-ylmethyl)-piperidin-4-yl]-butan-1-one], the 50% inhibitory concentration (IC50) at human FAAH came to 9 nM; at rat FAAH, 141 nM.

In the case of `CC(C)c1ccc(CN2CCC(CCCC(=O)c3ncc(-c4cccc(C(=O)O)n4)o3)CC2)cc1` [Example 148, 6-(2-{4-[1-(4-isopropyl-benzyl)-piperidin-4-yl]-butyryl}-oxazol-5-yl)-pyridine-2-carboxylic acid trifluoroacetic acid salt], the figures for the IC50 on human FAAH and against rat FAAH were 60 nM and 56 nM, respectively.

As for `O=C(CCCC1CCN(Cc2ccco2)CC1)c1ncco1` [Example 118, 4-(1-Furan-2-ylmethyl-piperidin-4-yl)-1-oxazol-2-yl-butan-1-one], the IC50 at human FAAH is 354 nM; against rat FAAH it was 935 nM.

In the case of `Cc1cccc(CN2CCC(CCCC(=O)c3ncco3)CC2)c1` [Example 19, 4-[1-(3-Methyl-benzyl)-piperidin-4-yl]-1-oxazol-2-yl-butan-1-one], the IC50 on human FAAH came to 90 nM; at rat FAAH it was 305 nM.

In the case of `O=C(CCCC1CCN(Cc2cnc3ccccc3c2)CC1)c1ncco1` [Example 21, 1-Oxazol-2-yl-4-(1-quinolin-3-ylmethyl-piperidin-4-yl)-butan-1-one], the IC50 on human FAAH was 29 nM; at rat FAAH, 86 nM.

For the molecule `O=C(CCCC1CCN(Cc2ccc(-n3ccnc3)cc2)CC1)c1ncco1` [Example 141, 4-[1-(4-Imidazol-1-yl-benzyl)-piperidin-4-yl]-1-oxazol-2-yl-butan-1-one], the results for the IC50 at human FAAH and at rat FAAH were 84 nM and 1500 nM, respectively.

`O=C(CCCC1CCN(C(=O)C2CCCC2)CC1)c1ncco1` [Example 31, 4-(1-Cyclopentanecarbonyl-piperidin-4-yl)-1-oxazol-2-yl-butan-1-one]: the IC50 on human FAAH came out at 106 nM; against rat FAAH, 288 nM.

Regarding `O=C(CCCC1CCN(S(=O)(=O)Cc2ccccc2)CC1)c1ncco1` [Example 53, 1-Oxazol-2-yl-4-(1-phenylmethanesulfonyl-piperidin-4-yl)-butan-1-one], the IC50 at human FAAH amounted to 600 nM; against rat FAAH, 800 nM.

Take `O=C(CCCC1CCN(Cc2c(F)cc(F)cc2F)CC1)c1ncco1` [Example 123, 1-Oxazol-2-yl-4-[1-(2,4,6-trifluoro-benzyl)-piperidin-4-yl]-butan-1-one]: the IC50 worked out at 200 nM on human FAAH and 280 nM on rat FAAH.

As for `O=C(CCCC1CCN(C(=O)CCC2CCCC2)CC1)c1ncco1` [Example 32, 4-[1-(3-Cyclopentyl-propionyl)-piperidin-4-yl]-1-oxazol-2-yl-butan-1-one], the IC50 stood at 28 nM at human FAAH and 112 nM at rat FAAH.

Take `O=C(CCCC1CCN(Cc2cccc(Oc3ccccc3)c2)CC1)c1ncco1` [Example 2, 1-Oxazol-2-yl-4-[1-(3-phenoxy-benzyl)-piperidin-4-yl]-butan-1-one]: the IC50 at human FAAH is 0.4 nM; against rat FAAH, 4.7 nM.

As to `O=C(CCCC1CCN(Cc2ccc(N3CCCCC3)nc2)CC1)c1ncco1` [Example 108, 1-oxazol-2-yl-4-[1-(3,4,5,6-tetrahydro-2H-[1,2′]bipyridinyl-5′-ylmethyl)-piperidin-4-yl]-butan-1-one], the IC50 at human FAAH turned out to be 23 nM; at rat FAAH, 235 nM.

As to `O=C(CCCC1CCN(C(=O)CC2CCCC2)CC1)c1ncco1` [Example 48, 4-[1-(2-Cyclopentyl-acetyl)-piperidin-4-yl]-1-oxazol-2-yl-butan-1-one], the IC50 on human FAAH is 100 nM; against rat FAAH, 216 nM.

In general, IC50 refers to the concentration at which inhibition is half-maximal.
